Where two headings read alike, the source gives them in different places.
Tests used:
[1] = tested on: Aβ40 in conditioned medium of cells stably expressing Amyloid Precursor Protein (APP); test: In vitro BACE cell-based assay (Aβ40 in conditioned medium, sandwich ELISA);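 note: compounds added as a dilution series, secreted peptide quantified by europium time-resolved fluorescence readout, potency fitted from percent of control versus compound concentration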
[2] = biological target: Beta Secretase enzyme (BACE) (Homo sapiens, UniProt P56817); test: In vitro enzymatic BACE FRET (fluorescence resonance energy transfer) assay; format: biochemical;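 note: fluorescence read after 1 h with 50 nM quenched peptide substrate spanning the BACE cleavage site, in pH 4.2 acetate buffer containing 10% DMSO and nonionic detergent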
Chain of Beta Secretase enzyme (BACE) (P56817 46-501): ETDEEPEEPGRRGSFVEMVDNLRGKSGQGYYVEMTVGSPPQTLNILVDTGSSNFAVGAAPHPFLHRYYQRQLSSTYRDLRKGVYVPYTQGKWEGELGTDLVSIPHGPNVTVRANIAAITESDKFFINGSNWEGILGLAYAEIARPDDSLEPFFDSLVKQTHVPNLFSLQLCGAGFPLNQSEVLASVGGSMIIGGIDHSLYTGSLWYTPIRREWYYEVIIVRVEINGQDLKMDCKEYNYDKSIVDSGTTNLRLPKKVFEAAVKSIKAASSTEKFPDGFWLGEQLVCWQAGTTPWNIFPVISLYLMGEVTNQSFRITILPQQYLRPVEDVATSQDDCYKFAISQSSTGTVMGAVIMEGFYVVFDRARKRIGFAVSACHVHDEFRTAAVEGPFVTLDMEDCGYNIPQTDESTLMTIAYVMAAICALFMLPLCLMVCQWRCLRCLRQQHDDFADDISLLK

[3] = Homo sapiens, HEK293, HEK cells, cell-based assay, read-out: HEK cell assay (IC50)
[4] = BACE enzyme FRET assay, read-out: BACE1 FRET assay (IC50)
[5] = Homo sapiens, HEK293, Table 1, HEK cells, read-out: HEK cell assay
[6] = Table 1, read-out: BACE1 FRET assay
[7] = BACE enzyme assay, read-out: BACE1 FRET assay (IC50)

SMILES	IC50 [1, 3] [nM]	IC50 [2, 4] [nM]	IC50 [2, 7] [nM]	other results
CO[C@H](C)C(=O)N[C@@H](Cc1cccc(F)c1)[C@H](O)CN[C@H]1CC2(CCC2)Oc2ncc(CC(C)(C)C)cc21 [compound 360]	–	–	–	IC50 [1, 5]: 4.82 nM; IC50 [2, 6]: 3.11 nM
CC(C)Cc1cnc2c(c1)[C@@H](NC[C@@H](O)[C@H](Cc1ccc3c(c1)OCO3)NC(=O)[C@H](C)F)CC1(CCC1)O2 [compound 601]	–	–	–	IC50 ([1]; Homo sapiens, HEK293, HEK cells, read-out: HEK cell assay (IC50)): 62 nM; IC50 ([2]; read-out: BACE1 FRET assay (IC50)): 44 nM
COCC(=O)N[C@@H](Cc1cccc(F)c1)[C@H](O)CN[C@H]1CC2(CCC2)Oc2ncc(CC(C)(C)F)cc21 [compound 284]	4.77	2.65	–	–
CC(C)(C)Cc1cnc2c(c1)[C@@H](NC[C@@H](O)[C@H](Cc1ccc3c(c1)OCO3)NC(=O)CF)CC1(CCC1)O2 [compound 283]	19	7.51	–	–
COCC(=O)N[C@@H](Cc1ccc2c(c1)OCCO2)[C@H](O)CN[C@H]1CC2(CCC2)Oc2ncc(CC(C)(C)C)cc21 [compound 206]	42.5	22.7	–	–
COC(C(=O)N[C@@H](Cc1ccc(F)cc1)[C@H](O)CN[C@H]1CC2(CCC2)Oc2ncc(CC(C)(C)C)cc21)C(F)(F)F (stereo partly drawn) [compound 59]	171	–	364	–
COCC(=O)N[C@@H](Cc1ccc2c(c1)OCO2)[C@H](O)CN[C@H]1CC2(CCC2)Oc2ncc(CC(C)(C)C#N)cc21 [compound 87]	82.8	–	117	–
COCC(=O)N[C@@H](Cc1cc(F)c2c(c1)OCO2)[C@H](O)CN[C@H]1CC2(CCC2)Oc2ncc(CC(C)(C)C)cc21 [compound 302]	11.5	5.73	–	–
COC(C(=O)N[C@@H](Cc1cccc(F)c1)[C@H](O)CN[C@H]1CC2(CCC2)Oc2ncc(CC(C)(C)C)cc21)C(F)(F)F (stereo partly drawn) [compound 65]	127	–	34.3	–
CC(=O)N[C@@H](Cc1ccc(F)cc1)[C@H](O)CN[C@H]1CC2(CCC2)Oc2c(F)cc(CC(C)(C)C#N)cc21 [compound 171]	28.2	–	15.9	–
CC(=O)C(=O)N[C@@H](Cc1ccc2c(c1)OCO2)[C@H](O)CN[C@H]1CC2(CCC2)Oc2ncc(CC(C)(C)C)cc21 [compound 307]	68.3	31.3	–	–
CO[C@H](C)C(=O)N[C@@H](Cc1ccc2c(c1)OCO2)[C@H](O)CN[C@H]1CC2(CCC2)Oc2nc(F)c(CC(C)C)cc21 [compound 336]	–	–	–	IC50 [1, 5]: 404 nM; IC50 [2, 6]: 135 nM
CNc1nc(CC(C)(C)C)cc2c1OC1(CCC1)C[C@@H]2NC[C@@H](O)[C@H](Cc1ccc2c(c1)OCO2)NC(=O)COC [compound 125]	13.3	–	57	–
COCC(=O)N[C@@H](Cc1ccc(F)c(Br)c1)[C@H](O)CN[C@H]1CC2(CCC2)Oc2ncc(CC(C)(C)C)cc21 [compound 352]	–	–	–	IC50 [1, 5]: 17.6 nM; IC50 [2, 6]: 3.71 nM
COCC(=O)NC(Cc1cc(F)cc(F)c1)C(O)CNC1CC2(CCC2)Oc2ncc(C(O)C(F)(F)F)cc21 (stereo not drawn) [compound 349]	–	–	–	IC50 [1, 5]: 139 nM; IC50 [2, 6]: 166 nM
CC(=O)N[C@@H](Cc1ccc(F)c(Br)c1)[C@H](O)CN[C@H]1CC2(CCC2)Oc2ncc(OC(C)(C)C)cc21 [compound 353, N-((1S,2R)-1-((3-bromo-4-fluorophenyl)methyl)-3-(((4′S)-6′-((1,1-dimethylethyl)oxy)-3′,4′-dihydrospiro[cyclobutane-1,2′-pyrano[2,3-b]pyridin]-4′-yl)amino)-2-hydroxypropyl)acetamide]	–	–	–	IC50 [1, 5]: 424 nM; IC50 [2, 6]: 120 nM
COCC(=O)N[C@@H](Cc1ccccc1)[C@H](O)CN[C@H]1CC2(CCC2)Oc2ncc(CC(C)(F)F)cc21 [compound 273]	26.5	14.9	–	–
CC(C)(C)Cc1cnc2c(c1)[C@@H](NC[C@@H](O)[C@H](Cc1cccc(F)c1)NC(=O)C(C)(Cl)Cl)CC1(CCC1)O2 [compound 106]	834	–	66.9	–
COCC(=O)NC(Cc1ccc(Cl)cc1)C(O)CNC1CC2(CC(O)C2)Oc2ncc(CC(C)(C)C)cc21 [compound 234, N-((1S,2R)-1-((4-chlorophenyl)methyl)-3-(((1s,3S,4′S)-6′-(2,2-dimethylpropyl)-3-hydroxy-3′,4′-dihydrospiro[cyclobutane-1,2′-pyrano[2,3-b]pyridin]-4′-yl)amino)-2-hydroxypropyl)-2-(methyloxy)acetamide]	13.5	4.04	–	–
CC(=O)N[C@@H](Cc1ccc(F)cc1)[C@H](O)CN[C@@H]1c2cc(CC(C)(C)C)cnc2OC2(CCC2)[C@H]1F [compound 357]	–	–	–	IC50 [1, 5]: > 10000 nM; IC50 [2, 6]: 13300 nM
COCC(=O)N[C@@H](Cc1ccc2c(c1)OCO2)[C@H](O)CN[C@H]1CC2(CCC2)Oc2ncc(CC(C)C)cc21 [compound 334]	–	–	–	IC50 [1, 5]: 67.2 nM; IC50 [2, 6]: 48 nM

More lines, main results first:

IC50 [1, 3] [nM]	IC50 [2, 4] [nM]	IC50 [2, 7] [nM]	SMILES	other results
20.9	24.4	–	CC(=O)CC(=O)N[C@@H](Cc1ccc2c(c1)OCO2)[C@H](O)CN[C@H]1CC2(CCC2)Oc2ncc(CC(C)(C)C)cc21 [compound 308]	–
21.9	20.9	–	COCCC(=O)N[C@@H](Cc1ccc2c(c1)OCO2)[C@H](O)CN[C@H]1CC2(CCC2)Oc2ncc(CC(C)(C)C)cc21 [compound 197]	–
78.4	–	33.6	CC(C)(C)Cc1cnc2c(c1)[C@@H](NC[C@@H](O)[C@H](Cc1ccc(F)cc1)NC(=O)[C@@H](O)C(F)(F)F)CC1(CCC1)O2 [compound 69]	–
382	41.4	–	COCC(=O)N[C@@H](Cc1ccc2c(c1)OC(F)(F)O2)[C@H](O)CN[C@H]1CC2(CCC2)Oc2ncc(CC(C)(C)C)cc21 [compound 291]	–
67.8	–	25.5	COCC(=O)N[C@@H](Cc1ccc2c(c1)OCO2)[C@H](O)CN[C@H]1CC2(CCC2)Oc2c1cc(CC(C)(C)C)nc2Cl [compound 127, N-((1S,2R)-1-(1,3-benzodioxol-5-ylmethyl)-3-(((4′S)-8′-chloro-6′-(2,2-dimethylpropyl)-3′,4′-dihydrospiro[cyclobutane-1,2′-pyrano[2,3-c]pyridin]-4′-yl)amino)-2-hydroxypropyl)-2-(methyloxy)acetamide]	–
108	87	–	COCC(=O)NC(Cc1ccc2c(c1)OCO2)C(O)CNC1CC2(CC(F)C2)Oc2ncc(CC(C)(C)C)cc21 [compound 240, N-((1S,2R)-1-(1,3-benzodioxol-5-ylmethyl)-3-(((1s,3S,4′S)-6′-(2,2-dimethylpropyl)-3-fluoro-3′,4′-dihydrospiro[cyclobutane-1,2′-pyrano[2,3-b]pyridin]-4′-yl)amino)-2-hydroxypropyl)-2-(methyloxy)acetamide]	–
7	–	2.32	CC(=O)N[C@@H](Cc1ccccc1)[C@H](O)CN[C@H]1CC2(CCC2)Oc2ncc(CC(C)(C)CF)cc21 [compound 180]	–
53.8	23.6	–	COCC(=O)N[C@@H](Cc1cccc(F)c1)[C@H](O)CN[C@H]1CC2(CCC2)Oc2cnc(CC(C)(C)F)cc21 [compound 252]	–
–	5180	–	COCC(=O)NC(Cc1cccc(F)c1)C(O)CNC1CC2(CC(O)C2)Oc2cnccc21 [compound 236, N-((1S,2R)-1-((3-fluorophenyl)methyl)-2-hydroxy-3-(((1r,3R,4′S)-3-hydroxy-3′,4′-dihydrospiro[cyclobutane-1,2′-pyrano[2,3-c]pyridin]-4′-yl)amino)propyl)-2-(methyloxy)acetamide]	IC50 ([1]; HEK cells, cell-based assay, read-out: HEK cell assay (IC50)): 270 nM

Reference: patent US8163909B2, “Substituted hydroxyethyl amine compounds as beta-secretase modulators and methods of use” (Amgen Inc., priority 2007, dated 2012)
